From patent publication US12534439B2, “Xanthohumol derivatives and methods for making and using” (Oregon State University, priority 2021, dated 2026)

System: HFD-fed C57BL/6J mice
Test: Untargeted cortex LC-MS metabolomics
Assay type: in vivo
Settings: cortex of HFD-fed mice
Description: Plasma and Cortex LC-MS Metabolomics. The left and right sides of the cortex were pooled and ground using liquid nitrogen. Cortex samples (approximately 30 mg) were extracted as previously described with slight modifications. Tissues were homogenized with 600 μL of cold 80% acetonitrile with 0.1% formic acid containing 0.2 μg/mL of dopamine-d4 (Sigma-Aldrich, St Louis, MO, USA) and 0.2 μg/mL of chlorpropamide (Sigma-Aldrich, St Louis, MO, USA) using a counter-top bullet blender for 2 min and centrifuged at 20 000 rpm for 10 minutes. Supernatants were transferred to high performance liquid chromatography (HPLC) vials for analysis.
LC-high-resolution mass spectrometry/MS. Data dependent acquisition in both negative and positive ion mode was conducted using a Shimadzu Nexera UPLC system coupled to an AB SCIEX TripleTOF 5600 mass spectrometer (AB SCIEX, Toronto, Canada). Chromatographic separation was conducted using an Inertsil Phenyl-3 column (4.6×150 mm, 100 Å, 5 μm; GL Sciences, Tokyo, Japan). Spray voltage was −4200 V for negative ion mode and 4500 V for positive ion mode acquisition. The injection volume was 3 μL. Metabolite identifications were performed using Progenesis QI software (V2.4.6911) with METLIN plugin V1.0.6499 (NonLinear Dynamics, United Kingdom). Progenesis QI was used for peak picking, retention time correction, data normalization, peak alignment, and metabolite annotations. Metabolites were detected in both ion modes; the one with the lowest coefficient of variation of the QC was kept.

COc1cc(O)c(CC=C(C)C)c(O)c1-c1cc(-c2ccc(O)cc2)n(C)n1 [XP, 4-(5-(4-hydroxyphenyl)-1-methyl-1H-pyrazol-3-yl)-5-methoxy-2-(3-methylbut-2-en-1-yl)benzene-1,3-diol]
Ion intensities, Mean: 1,2-DIPALMITOYL-SN-GLYCEROL: 1513.84
Ion intensities, Mean: 1-Arachidonoyl-glycerophosphoinositol: 546.96
Ion intensities, Mean: 1-Palmitoyl-2-linoleoyl PE: 1180.62
Ion intensities, Mean: 2-Pyrrolidinone: 1222.06
Ion intensities, Mean: 2′-DEOXYURIDINE 5′-MONOPHOSPHATE: 594.66
Ion intensities, Mean: 3-Methyl-L-histidine: 518.49
Ion intensities, Mean: 3-PHOSPHO-GLYCERIC ACID: 2370.20
Ion intensities, Mean: 5-Acetylamino-6-amino-3-methyluracil: 52.73
Ion intensities, Mean: 5-Methylcytidine: 9448.98
Ion intensities, Mean: 12-HYDROXYDODECANOIC-ACID: 2251.29
Ion intensities, Mean: 20-Hydroxy-PGE2: 7093.39
Ion intensities, Mean: 27-Hydroxycholesterol: 20090.45
Ion intensities, Mean: ADENOSINE: 49823.74
Ion intensities, Mean: ADENOSINE 5′-DIPHOSPHORIBOSE: 4312.21
Ion intensities, Mean: ADENOSINE 5′-MONOPHOSPHATE: 90459.20
Ion intensities, Mean: ADENOSINE-5′-DIPHOSPHOGLUCOSE: 1755.31
Ion intensities, Mean: ADP: 3426.97
Ion intensities, Mean: AMINOADIPATE: 331.86
Ion intensities, Mean: ASCORBATE: 1431.15
Ion intensities, Mean: ASPARTATE: 1333.10
Ion intensities, Mean: Acetylcarnitine: 12649.68
Ion intensities, Mean: Acetylcholine: 1745.95
Ion intensities, Mean: Adenine: 1949.85
Ion intensities, Mean: Adenylosuccinate: 1016.78
Ion intensities, Mean: Adenylsuccinic acid: 3152.34
Ion intensities, Mean: Arachidonic acid: 20901.19
Ion intensities, Mean: Arachidonic acid ethyl ester: 351.43
Ion intensities, Mean: Arginine: 2112.34
Ion intensities, Mean: Aspartic acid: 8729.17
Ion intensities, Mean: BILIVERDIN: 167.09
Ion intensities, Mean: CARNITINE: 14584.14
Ion intensities, Mean: CDP-Ethanolamine: 571.19
Ion intensities, Mean: CHENODEOXYCHOLATE: 5735.03
Ion intensities, Mean: CITRATE: 1682.49
Ion intensities, Mean: CMP: 688.26
Ion intensities, Mean: Carnosine: 1422.99
Ion intensities, Mean: Choline: 8899.36
Ion intensities, Mean: Creatine: 89712.34
Ion intensities, Mean: Cysteineglutathione disulfide: 1531.40
Ion intensities, Mean: Cytidine: 846.95
Ion intensities, Mean: Cytidine 2′,3′-cyclic phosphate: 356.88
Ion intensities, Mean: Cytidine diphosphate choline (CDPcholine): 2658.54
Ion intensities, Mean: D-GLUCOSE 6-PHOSPHATE: 138.50
Ion intensities, Mean: D-Glucaro-1,4-lactone: 1887.47
Ion intensities, Mean: D-RIBOSE 5-PHOSPHATE: 136.10
Ion intensities, Mean: DESMOSTEROL: 15551.25
Ion intensities, Mean: DIHYDROOROTATE: 91.24
Ion intensities, Mean: Deoxycytidine: 665.81
Ion intensities, Mean: Deoxyguanosine: 2401.12
Ion intensities, Mean: Docosahexaenoic acid: 2873.42
Ion intensities, Mean: Docosenamide: 20845.53
Ion intensities, Mean: Dodecanedioic acid: 333.82
Ion intensities, Mean: ERUCIC ACID: 98.90
Ion intensities, Mean: ETHANOLAMINE PHOSPHATE: 441.02
Ion intensities, Mean: Ergothioneine: 515.38
Ion intensities, Mean: Ethyl nicotinate: 81.18
Ion intensities, Mean: GLUTAMIC ACID: 9048.31
Ion intensities, Mean: GLUTAMINE: 22688.89
Ion intensities, Mean: GUANOSINE 5′-MONOPHOSPHATE: 4141.69
Ion intensities, Mean: Glutamate: 53559.34
Ion intensities, Mean: Glutathione: 232313.32
Ion intensities, Mean: Glycerophosphocholine: 124857.55
Ion intensities, Mean: Guanosine monophosphate: 845.86
Ion intensities, Mean: HEPTADECANOATE: 23.50
Ion intensities, Mean: HISTIDINE: 1129.76
Ion intensities, Mean: Homocarnosine: 689.23
Ion intensities, Mean: Homoserine: 1034.62
Ion intensities, Mean: Hydroxybutyric acid: 2833.09
Ion intensities, Mean: Hydroxyphenethylamine: 4074.28
Ion intensities, Mean: Hypoxanthine: 88.42
Ion intensities, Mean: Hypusine: 196.91
Ion intensities, Mean: ISOCITRIC ACID: 2051.66
Ion intensities, Mean: ISOLEUCINE: 1578.44
Ion intensities, Mean: Indoleacetaldehyde: 523.18
Ion intensities, Mean: Inosine: 1409.62
Ion intensities, Mean: Inosine 5′-monophosphate (IMP): 5581.09
Ion intensities, Mean: Isostearic acid: 1901.95
Ion intensities, Mean: L-2-Amino-5-hydroxypentanoicacid: 2343.03
Ion intensities, Mean: L-OLEOYL-RAC-GLYCEROL: 2628.37
Ion intensities, Mean: LACTATE: 3144.80
Ion intensities, Mean: LAUROYLCARNITINE: 277.93
Ion intensities, Mean: LEUKOTRIENE B4: 30.73
Ion intensities, Mean: LYSINE: 107.27
Ion intensities, Mean: Lathosterol: 14569.93
Ion intensities, Mean: Lipoamide: 114.97
Ion intensities, Mean: MALATE: 1664.52
Ion intensities, Mean: Methionine: 2031.63
Ion intensities, Mean: Methylthioadenosine: 3521.96
Ion intensities, Mean: Myristoylcarnitine: 1303.77
Ion intensities, Mean: N,N-dimethyl-Safingol: 578.09
Ion intensities, Mean: N-(1-Deoxy-1-fructosyl) serine: 4331.01
Ion intensities, Mean: N-ACETYL-L-ASPARTICACID: 25975.80
Ion intensities, Mean: N-ACETYLNEURAMINATE: 1670.91
Ion intensities, Mean: N-Acetyl-Glutamic acid: 205.45
Ion intensities, Mean: N-Acetyl-L-alanine: 1909.11
Ion intensities, Mean: N-Acetylaspartylglutamic acid: 2955.57
Ion intensities, Mean: N-Acetylglutamine: 519.28
Ion intensities, Mean: N-Acetylisoputreanine: 153.75
Ion intensities, Mean: N-Acetyllactosamine: 273.32
Ion intensities, Mean: N-Linoleoyl GABA: 54.12
Ion intensities, Mean: N-Methyl-Glutamate: 2772.85
Ion intensities, Mean: N-a-Acetyl-Arginine: 270.36
Ion intensities, Mean: NAD: 1268.92
Ion intensities, Mean: NE,NE,NE-TRIMETHYLLYSINE: 3943.68
Ion intensities, Mean: Niacinamide: 5120.54
Ion intensities, Mean: Nicotinamide adenine dinucleotide (NAD): 37985.70
Ion intensities, Mean: O-Phosphoethanolamine: 302.71
Ion intensities, Mean: Octadecenoic acid: 169.48
Ion intensities, Mean: Oleamide: 3677.58
Ion intensities, Mean: Oxidized glutathione: 4537.22
Ion intensities, Mean: PALMITATE: 1211.29
Ion intensities, Mean: PALMITOLEIC ACID: 39.36
Ion intensities, Mean: PANTOTHENIC ACID: 524.89
Ion intensities, Mean: PETROSELINIC ACID: 142.54
Ion intensities, Mean: PHENYLALANINE: 2973.73
Ion intensities, Mean: PHENYLETHANOLAMINE: 1559.27
Ion intensities, Mean: Phenylpropionylglycine: 431.18
Ion intensities, Mean: Phosphocholine: 23860.56
Ion intensities, Mean: Phosphodimethyl-ethanolamine: 269.92
Ion intensities, Mean: Pipecolic acid: 516.02
Ion intensities, Mean: Propionylcarnitine: 540.78
Ion intensities, Mean: Pyridoxamine-5′-Phosphate: 484.54
Ion intensities, Mean: RAC-GLYCEROL-L-MYRISTATE: 283.53
Ion intensities, Mean: S-Adenosylhomocysteine: 473.94
Ion intensities, Mean: S-Adenosylmethionine: 18868.04
Ion intensities, Mean: SERINE: 483.60
Ion intensities, Mean: SUCCINATE: 304.14
Ion intensities, Mean: Spermic acid 1: 199.76
Ion intensities, Mean: Spermidine: 7809.52
Ion intensities, Mean: Sphinganine: 23.16
Ion intensities, Mean: Sphinganine 1-phosphate: 1966.99
Ion intensities, Mean: Sphingosine: 1163.81
Ion intensities, Mean: Stearoylglycerophosphoserine: 1831.40
Ion intensities, Mean: Succinyladenosine: 217.97
Ion intensities, Mean: TAURINE: 6801.22
Ion intensities, Mean: THEOPHYLLINE: 18.56
Ion intensities, Mean: TRYPTOPHAN: 1355.41
Ion intensities, Mean: Tetradecanedioic acid: 115.20
Ion intensities, Mean: Tetrahydrodeoxycortisol: 2674.78
Ion intensities, Mean: Threoninyl-Alanine: 295.96
Ion intensities, Mean: Tyrosine: 6818.63
Ion intensities, Mean: URIDINE: 1161.25
Ion intensities, Mean: URIDINE 5′-DIPHOSPHOGALACTOSE: 1728.73
Ion intensities, Mean: URIDINE-5-MONOPHOSPHATE: 3704.01
Ion intensities, Mean: Undecanedicarboxylic acid: 219.08
Ion intensities, Mean: Uracil: 225.61
Ion intensities, Mean: Uridine 5′-diphosphate: 422.30
Ion intensities, Mean: Xanthine: 155.79
Ion intensities, Mean: cyclic GMP-AMP: 2077.75
Ion intensities, Mean: diethyltoluamide: 5.17
Ion intensities, Mean: docosa-hexaenoic acid: 1911.88
Ion intensities, Mean: hydroxyhexadecanoyl carnitine: 1048.02
Ion intensities, Mean: hydroxyvitamin D3: 21210.39
Ion intensities, Mean: sn-glycero-3-Phosphoethanolamine: 994.53
